We go through five compounds from PMC7887271, “Fast acting allosteric phosphofructokinase inhibitors block trypanosome glycolysis and cure acute African trypanosomiasis in mice” (Nature Communications, 2021).

For series [1], the target named is T1, T. brucei phosphofructokinase (TbPFK) (Trypanosoma brucei brucei, UniProt O15648).
T1 construct: made in house; host or cells: Escherichia coli C41 (pET28a, codon optimised gene)
T1 sequence (O15648 1-487): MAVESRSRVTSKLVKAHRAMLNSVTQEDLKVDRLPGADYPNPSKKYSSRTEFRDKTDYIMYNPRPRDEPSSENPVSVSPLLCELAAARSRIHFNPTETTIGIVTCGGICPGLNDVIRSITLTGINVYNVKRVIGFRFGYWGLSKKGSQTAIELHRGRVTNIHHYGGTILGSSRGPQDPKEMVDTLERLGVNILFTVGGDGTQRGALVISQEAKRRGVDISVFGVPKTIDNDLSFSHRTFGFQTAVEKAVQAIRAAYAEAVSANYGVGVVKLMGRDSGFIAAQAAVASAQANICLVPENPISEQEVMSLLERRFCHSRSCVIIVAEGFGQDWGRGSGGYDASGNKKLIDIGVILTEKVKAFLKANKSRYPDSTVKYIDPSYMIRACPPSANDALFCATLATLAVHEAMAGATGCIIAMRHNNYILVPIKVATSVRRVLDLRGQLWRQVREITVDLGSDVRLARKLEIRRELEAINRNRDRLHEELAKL
Put plainly: ADP-Glo assay for measuring PFK inhibition. Format: biochemical. Conditions: for RLU, avg / RLU, individual replicates: SuppFig1. As to the method:
Parasite enzyme kinetic data were measured using N-terminally His6-tagged TbPFK expressed in Escherichia coli C41 cells, using a codon optimised gene inserted in a pET28a vector (Supplementary Methods 1). Recombinant human PFKs were expressed in PFK-deficient Saccharomyces cerevisiae. PFK enzyme inhibition was measured using an ADP-Glo^TM assay (Promega) in a 96-well plate format (Supplementary Methods 2.1), using a Spectramax© M5 Multimode Plate Reader to measure luminescence values which were converted to ADP concentrations. IC50 values were determined using a sigmoidal curve fitting algorithm in Kaleidagraph 4 (Supplementary Fig. 1). Mode of action studies were carried out using a linked enzyme assay coupling the forward reaction of TbPFK to the M1 isoform of human pyruvate kinase followed by lactate dehydrogenase. The change in UV absorbance at 340 nm resulting from the conversion of NADH to NAD^+ was measured at 25 °C in ‘kinetic mode’ on a Spectramax© M5 Multimode plate reader. Initial velocities were plotted against substrate concentration to give curves showing non-competitive inhibition (Supplementary Fig. 2). An alternative linked enzyme assay was developed to control for the potential inhibitory activity of ATP on human PFK (Supplementary Methods 2.3).
The ADP-Glo™ end-point assay kit manufactured by Promega (cat. No. V9102) was used to measure ADP produced in the phosphofructokinase reaction:
Following this kinase reaction, the addition of a reagent results in any unused background ATP being removed and the reaction is sequestered. A second reagent is then added to convert the remaining ADP to ATP which is coupled to the luciferase/luciferin reaction to produce light. ‘Ultrapure’ ATP and ADP from Promega were used to reduce background noise. All reagents additional to those provided in the Promega ADP-Glo™ kit were purchased from Sigma-Aldrich.
The assay buffer comprised 50 mM triethanolamine (TEA), 10 mM MgCl2, 5 mM KCl, 0.1% w/v bovine serum albumin (BSA), 0.005% Tween-20, 1% DMSO, pH 7.4. A 3-fold serial dilution of 250x inhibitor stocks was carried out in 100% DMSO. 2 µl of these dilutions was added to 198 µl assay buffer and mixed well using a multichannel pipette. […] Concentration ranges of inhibitor compounds were 40 - 0.006 µM (final concentration, 1% DMSO). The PFK reaction in the presence of inhibitor was carried out using 10 µl of 1 µg/ml PFK (final concentration 0.4 µg/ml) which was added to 10 µl of the 1% DMSO inhibitor compound serial dilutions in a white, non-binding 96-well plate (Greiner BioOne 655904). CTCB-001 was used as a positive control at a final concentration of 5 µM. Assay buffer containing 1% DMSO was added instead of inhibitor compound for the negative control. The protein/inhibitor mixture was incubated for 10 minutes at room temperature (RT). The kinase reaction was started by adding a 5x ATP/F6P stock in assay buffer (final concentrations 0.5 mM F6P and 0.1 mM ATP). Plates were then sealed, centrifuged at 560 x g for 30 seconds and incubated at RT for 30 minutes. 25 µl of ‘ADP-Glo™ Reagent’ was then added to each well, mixed using a multichannel pipette and incubated at room temperature for 40 minutes. 50 µl of ‘Kinase Detection Reagent’ was added and incubated for 50 minutes at RT. The luminescence was recorded using a Spectramax© M5 Multi-mode Plate Reader (Molecular Devices) in single-point mode, with an integration time of 750 milliseconds. The luminescence values were converted to ADP concentration using a standard calibration curve for ADP. The resulting ADP concentrations were plotted as a function of inhibitor compound concentration using Kaleidagraph 4.0 software. The data were analysed using non-linear regression and a sigmoidal curve was fitted (Supplementary Figure 1) to determine the IC50. Kaleidagraph 4.0 uses the Levenberg-Marquardt algorithm in an iterative procedure to fit non-linear curves. […] The slope of the curve at the midpoint (m4) was set to 1.

Series [2] in a line: Metabolic stability, mouse liver microsomes. Format: in vitro ADME. Particulars: read-out: MLM Clint. The protocol: A HepG2 cytotoxicity assay was used to determine a cellular selectivity index. HepG2 cells were seeded into 96-well plates in EMEM medium. Compounds were assessed for their effect upon cellular viability (Supplementary Methods 5.1). Inhibition of CYP450 was determined using kits from BD Biosciences (Supplementary Methods 5.2). Metabolic stability was determined using mouse […] tested at a single concentration of 5 µM. Plasma protein binding was determined using mouse and human plasma at a single concentration of 10 µM (Supplementary Methods 5.4). All PK studies in mice were carried out by Pharmidex (Supplementary Methods 6.1).
Compounds were tested for their metabolic stability using mouse and human liver microsomes (MLM and HLM). The compounds were tested at a single concentration of 5 µM. The samples were crashed with acetonitrile and put through protein precipitation plates. The eluent was analysed by LC/MS or LC/MS/MS.

Where [3] appears, read: ADP-Glo, mean ± SD, read-out: IC50 (µM) for inhibition of T. brucei phosphofructokinase (PFK IC50).
Where [4] appears, read: source data, read-out: IC50 (µM), single dated measurement.
[5] abbreviates: source data for Fig. 2 and Table 1, read-out: Average IC50.

Molecules are shown by their SMILES. Several values for one entry are separate records, joined by “and”; a condition that tells them apart may be missing. Identical values can stand only once. Like-named read-outs stand apart in the source and are kept apart here.

In the case of `CN(C)CCn1ccc2c(ccn2Cc2ccc(Cl)c(Cl)c2)c1=O` [CTCB 405], the “RLU, avg” value in series [1] (Conc 0.00640146 uM) was found to be 39926.3 RLU; in series [1] (Conc 0.0192044 uM), 39977.3 RLU; in series [1] (Conc 0.0576132 uM), 34288.1 RLU; in series [1] (Conc 0.17284 uM), 23285 RLU; in series [1] (Conc 0.518519 uM), 10488.4 RLU; in series [1] (Conc 1.55556 uM) it was 4498.05 RLU. Also, the “RLU, avg” value in series [1] (Conc 4.66667 uM) is given as 2709.41 RLU; in series [1] (Conc 14 uM), 1717.44 RLU. The “RLU, individual replicates” value in series [1] (Conc 0.00640146 uM) is 40029.2 RLU and 39823.3 RLU; in series [1] (Conc 0.0192044 uM), 42153.7 RLU and 37800.9 RLU; in series [1] (Conc 0.0576132 uM), 36858 RLU and 31718.2 RLU; in series [1] (Conc 0.17284 uM), 25069.7 RLU and 21500.2 RLU; in series [1] (Conc 0.518519 uM), 11745.9 RLU and 9230.85 RLU; in series [1] (Conc 1.55556 uM), 4537.49 RLU and 4458.6 RLU. In addition, the “RLU, individual replicates” value in series [1] (Conc 4.66667 uM) was 2899.92 RLU and 2518.91 RLU; in series [1] (Conc 14 uM) it was 1947.39 RLU and 1487.48 RLU.
Turning to `CN(C)CCn1ccc2c(ccn2Cc2ccc(F)c(Br)c2)c1=O` [CTCB-508, 1-[(3-Bromo-4-fluorophenyl)methyl]-5-[2-(dimethylamino)ethyl] pyrrolo[3,2-c]pyridin-4-one], the microsomal CLint at 5 µM in series [2] turned out to be 56 µL/min/mg. Moreover, the IC50 is 0.2 ± 0.05 µM in series [1] (setting [3]); 0.13 µM and 0.229 µM and 0.25 µM in series [1] (setting [4]).
Turning to `CN(C)CCn1ccc2c(ccn2Cc2ccc(Cl)c(Br)c2)c1=O` [CTCB-470, 1-[(3-Bromo-4-chlorophenyl)methyl]-5-[2-(dimethylamino)ethyl] pyrrolo[3,2-c]pyridin-4-one], in series [2], the microsomal CLint at 5 µM is 91 µL/min/mg. The IC50 in series [1] (setting [5]) is 0.21 µM; in series [1] (setting [4]), 0.137 µM and 0.154 µM and 0.209 µM and 0.359 µM.
As for `CNCCn1ccc2c(ccn2Cc2ccc(Cl)c(Cl)c2)c1=O` [CTCB-435], the IC50 in series [1] (setting [5]) was 0.12 µM; in series [1] (setting [4]), 0.111 µM and 0.127 µM.
Take `CN(C)CCn1ccc2c(ccn2Cc2ccc(Cl)c(Cl)c2)c1=O` [CTCB-405, 1-[(3,4-Dichlorophenyl)methyl]-5-[2-(dimethylamino)ethyl] pyrrolo[3,2-c]pyridin-4-one]: the microsomal CLint at 5 µM in series [2] is 70 µL/min/mg. The IC50 in series [1] (setting [3]) was 0.18 ± 0.03 µM; in series [1] (setting [4]), 0.209 µM and 0.202 µM and 0.134 µM and 0.19 µM.
